Data taken from patent US10087188B2, “Benzamide imidazopyrazine Btk inhibitors” (MERCK SHARP & DOHME CORP., priority 2014, dated 2018).

Key:
HeLa cells = assay: [3H] Adenosine uptake assay; type: cell-based; conditions: Homo sapiens, HeLa, accumulation of tritiated adenosine into HeLa cells; compound concentration range 10 μM to 0.032 nM; read-out: ADU inhibition IC50 (adenosine uptake inhibition potency)
Summary of the method: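 HeLa cells in HBSS + 5% FBS preincubated 30 min at ambient temperature with compound (0.25% DMSO), then [3H]adenosine (500 nM stock) added for 60 min. Uptake measured by scintillation proximity counting; IC50 from 4-parameter fit of counts vs log concentration.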

[1] = biological target: BTK enzyme (recombinant full-length BTK, hBTK) (Homo sapiens (Human), UniProt Q06187); assay: Btk enzyme activity assay, LANCE TR-FRET; type: biochemical; conditions: 50 pM hBTK, 2 μM biotin-A5-peptide, 25 μM ATP; 60 minute compound & enzyme incubation; read-out: BTK binding IC50
Experimental: Btk Enzyme Activity Assay Methods
BTK enzymatic activity was determined with the LANCE (Lanthanide Chelate Excite) TR-FRET (Time-resolved fluorescence resonance energy transfer) assay. […] After 60 minutes incubation with detection reagents, reaction plates were read on a PerkinElmer EnVision plate reader using standard TR-FRET protocol.

BTK enzyme (recombinant full-length BTK, hBTK), sequence (Q06187 whole entry): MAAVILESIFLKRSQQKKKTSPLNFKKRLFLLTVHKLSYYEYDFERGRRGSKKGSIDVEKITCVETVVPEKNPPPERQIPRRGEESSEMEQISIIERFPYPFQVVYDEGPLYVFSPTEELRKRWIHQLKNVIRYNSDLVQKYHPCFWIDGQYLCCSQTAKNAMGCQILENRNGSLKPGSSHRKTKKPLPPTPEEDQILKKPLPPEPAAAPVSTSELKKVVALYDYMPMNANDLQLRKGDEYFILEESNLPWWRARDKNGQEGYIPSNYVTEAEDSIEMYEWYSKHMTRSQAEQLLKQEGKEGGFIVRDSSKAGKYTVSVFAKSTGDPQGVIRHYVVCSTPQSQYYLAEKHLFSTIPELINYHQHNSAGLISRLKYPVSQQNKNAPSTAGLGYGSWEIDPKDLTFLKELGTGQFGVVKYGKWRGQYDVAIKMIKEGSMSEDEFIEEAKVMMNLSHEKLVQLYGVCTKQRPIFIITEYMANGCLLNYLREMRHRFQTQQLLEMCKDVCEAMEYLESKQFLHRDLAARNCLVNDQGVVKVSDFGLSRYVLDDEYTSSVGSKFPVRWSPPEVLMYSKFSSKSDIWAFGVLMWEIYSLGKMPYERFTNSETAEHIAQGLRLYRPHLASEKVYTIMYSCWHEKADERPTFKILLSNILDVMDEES

SMILES | IC50 (HeLa cells) [nM] | IC50 [1] [nM]
CCOc1cc(C(=O)Nc2cc(C(F)(F)F)ccn2)c(F)cc1-c1nc(C23CCC(C(=O)O)(CC2)CC3)n2ccnc(N)c12 [Example 149, 4-[8-amino-1-(2-ethoxy-5-fluoro-4-{[4-(trifluoromethyl)pyridin-2-yl]carbamoyl}phenyl)imidazo[1,5-a]pyrazin-3-yl]bicyclo[2.2.2] octane-1-carboxylic acid] | 6870 | 0.56
C[C@@]1(C(=O)O)CC[C@@](C)(c2nc(-c3ccc(C(=O)Nc4cc(C(F)(F)F)ccn4)cc3Cl)c3c(N)nccn23)C1 [Example 132, (1R,3R)-3-[8-amino-1-(2-chloro-4-{[4-(trifluoromethyl)pyridin-2-yl]carbamoyl}phenyl)imidazo[1,5-a]pyrazin-3-yl]-1,3-dimethylcyclopentane carboxylic acid] | 3160 | 0.25
CCOc1cc(C(=O)Nc2cc(C(F)(F)F)n(C)n2)ccc1-c1nc([C@H]2CC[C@](C(=O)O)(C(C)C)C2)n2ccnc(N)c12 [Example 58, (1R,3S)-3-[8-amino-1-(2-ethoxy-4-{[1-methyl-5-(trifluoromethyl)-1H-pyrazol-3-yl]carbamoyl}phenyl)imidazo[1,5-a]pyrazin-3-yl]-1-(1-methylethyl) cyclopentane-carboxylic acid] | 10000 | 27.6
CCOc1cc(C(=O)Nc2cc(C(F)(F)F)ccn2)ccc1-c1nc([C@@H]2CC[C@@](C(=O)O)(C(C)C)C2)n2c(Cl)cnc(N)c12 [Example 109, (1S,3R)-3-[8-amino-5-chloro-1-(2-ethoxy-4-{[4-(trifluoromethyl)pyridin-2-yl]carbamoyl}phenyl)imidazo[1,5-a]pyrazin-3-yl]-1-(1-methylethyl)cyclo-pentanecarboxylic acid] | 6840 | 0.64
Nc1nccn2c(C34C5C6C3C3C4C5C63C(=O)O)nc(-c3ccc(C(=O)Nc4cc(C5CC5)ccn4)cc3F)c12 (centres unmarked) [Example 74, 4-(8-amino-1-(4-((4-cyclopropylpyridin-2-yl)carbamoyl)-2-fluorophenyl)imidazo [1,5-a]pyrazin-3-yl)cubane-1-carboxylic acid] | 113 | 0.54
C[C@]1(C(=O)O)CC[C@H](N2CCO[C@@H](c3nc(-c4ccc(C(=O)Nc5cc(C6CC6)ccn5)cc4F)c4c(N)nccn34)C2)CC1 [Example 197, trans-4-[(2R)-2-(8-amino-1-{4-[(4-cyclopropylpyridin-2-yl)carbamoyl]-2-fluorophenyl}imidazo[1,5-a]pyrazin-3-yl)morpholin-4-yl]-1-methylcyclohexanecarboxylic acid] | 2950 | 1.2
CN1CC[C@@H](c2nc(-c3ccc(C(=O)Nc4cc(C(F)(F)F)ccn4)cc3)c3c(N)nccn23)C[C@H]1C(=O)O [Example 82, (2S,4R)-4-[8-amino-1-(4-{[4-(trifluoromethyl)pyridin-2-yl]carbamoyl}phenyl)imidazo[1,5-a]pyrazin-3-yl]-1-methylpiperidine-2-carboxylic acid] | 1730 | 1.2
Nc1nccn2c([C@H]3CC[C@@H](C(=O)N4CCC[C@H]4C(=O)O)C3)nc(-c3ccc(C(=O)Nc4cc(C(F)(F)F)ccn4)cc3)c12 [Example 17, 1-({(1R,3S)-3-[8-amino-1-(4-{[4-(trifluoromethyl)pyridin-2-yl]carbamoyl}phenyl)imidazo[1,5-a]pyrazin-3-yl]cyclopentyl}carbonyl)-L-proline] | 10000 | 1.9
CCOc1cc(C(=O)Nc2cc(C(F)(F)F)ccn2)ccc1-c1nc([C@H]2CN(C3CCC(C)(C(=O)O)CC3)[C@@H](C)CO2)n2c(Cl)cnc(N)c12 (stereo partly drawn) [Example 189, 4-{(2R,5S)-2-[8-amino-5-chloro-1-(2-ethoxy-4-{[4-(trifluoromethyl)pyridin-2-yl]carbamoyl}phenyl)imidazo [1,5-a]pyrazin-3-yl]-5-methylmorpholin-4-yl}-1-methylcyclohexanecarboxylic acid] | 4840 | 1.9
Nc1nccn2c([C@@H]3CCN[C@@H](C(=O)O)C3)nc(-c3ccc(C(=O)Nc4cc(C(F)(F)F)ccn4)cc3)c12 [Example 33, (2R,4R)-4-[8-amino-1-(4-{[4-(trifluoromethyl)pyridin-2-yl]carbamoyl}phenyl)imidazo[1,5-a]pyrazin-3-yl]piperidine-2-carboxylic acid] | 6800 | 4.4
CC(C)(C(=O)O)N1CC(=O)N2C[C@H](c3nc(-c4ccc(C(=O)Nc5cc(C(F)(F)F)ccn5)cc4)c4c(N)nccn34)CC[C@H]2C1 [Example 43, 2-{(7R,9aS)-7-[8-amino-1-(4-{[4-(trifluoromethyl)pyridin-2-yl]carbamoyl}phenyl)imidazo[1,5-a]pyrazin-3-yl]-4-oxooctahydro-2H-pyrido[1,2-a]pyrazin-2-yl}-2-methylpropanoic acid] | 4190 | 0.41

Further compounds by falling IC50 (HeLa cells), results first:

IC50 (HeLa cells) [nM] | IC50 [1] [nM] | SMILES
10000 | 8.2 | C[C@@]1(C(=O)O)CC[C@](C)(c2nc(-c3ccc(C(=O)Nc4cc(C(F)(F)F)ccn4)cc3)c3c(N)nccn23)C1 [Example 81, (1R.3S)-3-[8-amino-1-(4-{[4-(trifluoromethyl)pyridin-2-yl]carbamoyl}phenyl)imidazo[1,5-a]pyrazin-3-yl]-1,3-dimethylcyclopentane carboxylic acid]
10000 | 1.4 | C[C@]1(C(=O)O)CCN(c2nc(-c3ccc(C(=O)Nc4cc(C(F)(F)F)ccn4)cc3)c3c(N)nccn23)C1 [Example 45, (3S)-1-[8-amino-1-(4-{[4-(trifluoromethyl)pyridin-2-yl]carbamoyl}phenyl)imidazo[1,5-a]pyrazin-3-yl]-3-methylpyrrolidine-3-carboxylic acid]
10000 | 1.3 | COc1cc(C(=O)Nc2cc(C(F)(F)F)ccn2)cc(F)c1-c1nc(C2(C)CCC(C)(C(=O)O)CC2)n2ccnc(N)c12 (centres unmarked) [Example 127, 4-[8-amino-1-(2-fluoro-6-methoxy-4-{[4-(trifluoromethyl)pyridin-2-yl]carbamoyl}phenyl)imidazo[1,5-a]pyrazin-3-yl]-1,4-dimethylcyclohexane-carboxylic acid]
10000 | 4.4 | CCOc1cc(C(=O)Nc2cc(C(F)(F)F)ccn2)ccc1-c1nc(C2CCC(C)(C(=O)O)CC2)n2c(Cl)cnc(N)c12 (centres unmarked) [Example 165, 4-[8-amino-5-chloro-1-(2-ethoxy-4-{[4-(trifluoromethyl)pyridin-2-yl]carbamoyl}phenyl)imidazo[1,5-a]pyrazin-3-yl]-1-methylcyclohexane-carboxylic acid]
10000 | 2.4 | Nc1nccn2c(-c3ccc(C(=O)O)o3)nc(-c3ccc(C(=O)Nc4cc(C(F)(F)F)ccn4)cc3)c12 [Example 28, 5-[8-amino-1-(4-{[4-(trifluoromethyl)pyridin-2-yl]carbamoyl}phenyl)imidazo[1,5-a]pyrazin-3-yl]furan-2-carboxylic acid]
9480 | 2.4 | C[C@]1(C(=O)O)CC[C@@](C)(c2nc(-c3ccc(C(=O)Nc4cc(C(F)(F)F)ccn4)cc3)c3c(N)nccn23)C1 [Example 80, (1S,3R)-3-[8-amino-1-(4-{[4-(trifluoromethyl)pyridin-2-yl]carbamoyl}phenyl)imidazo[1,5-a]pyrazin-3-yl]-1,3-dimethylcyclopentane carboxylic acid]
6650 | 1.3 | Nc1nccn2c([C@@H]3CCCN(C(=O)C4CC4C(=O)O)C3)nc(-c3ccc(C(=O)Nc4cc(C(F)(F)F)ccn4)cc3)c12 (stereo partly drawn) [Example 150, 2-({(3R)-3-[8-amino-1-(4-{[4-(trifluoromethyl)pyridin-2-yl]carbamoyl}phenyl)imidazo[1,5-a]pyrazin-3-yl]piperidin-1-yl}carbonyl) cyclopropane-carboxylic acid]
2440 | 1 | C[C@]1(C(=O)O)CC[C@H](N2CCO[C@@H](c3nc(-c4ccc(C(=O)Nc5cc(C(F)F)ccn5)cc4)c4c(N)ncc(Cl)n34)C2)CC1 [Example 195, trans-4-{(2R)-2-[8-amino-5-chloro-1-(4-{[4-(difluoromethyl)pyridin-2-yl]carbamoyl}phenyl)imidazo [1,5-a]pyrazin-3-yl]morpholin-4-yl}-1-methylcyclohexanecarboxylic acid]
1140 | 10.2 | CN1CC[C@H](c2nc(-c3ccc(C(=O)Nc4cc(C(F)(F)F)ccn4)cc3)c3c(N)nccn23)C[C@@H]1C(=O)O [Example 83, (2R.4S)-4-[8-amino-1-(4-{[4-(trifluoromethyl)pyridin-2-yl]carbamoyl}phenyl)imidazo[1,5-a]pyrazin-3-yl]-1-methylpiperidine-2-carboxylic acid]
276 | 0.19 | Nc1nccn2c(C34CCC(C(=O)O)(CC3)CC4)nc(-c3ccc(C(=O)Nc4cc(C5CC5)ccn4)cc3)c12 [Example 169, 4-(8-amino-1-{4-[(4-cyclopropylpyridin-2-yl)carbamoyl]phenyl}imidazo[1,5-a]pyrazin-3-yl)bicyclo[2.2.2] octane-1-carboxylic acid]
274 | 0.23 | Nc1nccn2c(C34CCCC(C(=O)O)(CC3)CC4)nc(-c3ccc(C(=O)Nc4cc(C(F)(F)F)ccn4)cc3)c12 [Example 68, 5-[8-amino-1-(4-{[4-(trifluoromethyl)pyridin-2-yl]carbamoyl}phenyl)imidazo[1,5-a]pyrazin-3-yl]bicyclo[3.2.2] nonane-1-carboxylic acid]
